Like-named read-outs stand apart in the source and are kept apart here.
Experiments:
T-cell clones = test: Generation and drug-specificity testing of T-cell clones; format: cell-based, human; conditions: priming assay and/or T-cell clones
Experimental: To establish T-cell lines, PBMC from 3 healthy HLA-typed (Table 2) donors were cultured with individual test compounds (at concentrations not associated with inhibition of mitogen-driven PBMC proliferation; see Figure 2 for individual concentrations) for 14 days. Medium was supplemented with IL-2 (50 U/ml; Peprotech, New Jersey) to maintain drug-specific T-cell expansion. T-cell clones were generated from the T-cell lines by serial dilution and repetitive mitogen stimulation ([Schnyder et al., 2000]). T-cells (0.3–3 cells/well) were cultured with irradiated allogenic PBMC (5 × 10^4/well) and PHA-P (1 µg/ml) in IL-2 containing medium. The medium was supplemented with fresh IL-2 on days 6, 9 and every 2 days thereafter. Growing cultures were expanded further with a second round of mitogen stimulation and tested for drug-specific T-cell proliferation on day 28. Cloned T-cells (5 × 10^4/well) were cultured with irradiated autologous EBV-transformed B-cells (1 × 10^4/well) and drug in duplicate wells for 48 h. Wells containing medium served as a negative control. Proliferation was measured by the addition of [^3H]-thymidine followed by scintillation counting. T-cell clones with SI ≥ 2 were considered drug-responsive and expanded using irradiated allogeneic PBMC for dose-response studies and assessment of CD4/8 phenotyping.
Proliferation was measured by the addition of [^3H]-thymidine as described above.
T-cell clones were washed with FACS buffer and CD phenotype determined using flow cytometry. Cells (10 000) were acquired using a FACSCanto II (BD Biosciences) and data analyzed by FACSDiva software.
Figure 6. Generation of training compound (nitroso sulfamethoxazole, vancomycin, and Bandrowski’s base)-specific T-cell clones. PBMC from 3 healthy donors were cultured with training compounds and supplemented with IL-2 (50 U/ml) for 14 days. T-cell clones were generated from the T-cell lines by serial dilution and repetitive mitogen stimulation. T-cells (0.3–3 cells/well) were stimulated with irradiated allogenic PBMC (5 × 10^4/well) and phytohemagglutinin (1 µg/ml). Well growing cultures were subjected to a second round of expansion then tested for drug-specific T-cell proliferation. Proliferation was measured by the addition of ^3H-thymidine followed by scintillation counting. A–C, Initial specificity test for nitroso sulfamethoxazole, vancomycin, and Bandrowski’s base clones. T-cell clones showing stimulation index, SI ≥ 2 were considered drug-responsive and expanded and used in dose-response studies. SI = Drug-induced T-cell proliferation divided by T-cell proliferation in cell culture media. […] T-cell activation was determined using [^3H]-thymidine incorporation.
Figure 7. […] PBMC from 3 healthy donors were cultured with test compounds and supplemented with IL-2 (50 U/ml) for 14 days. T-cell clones were generated from the T-cell lines by serial dilution and repetitive mitogen stimulation. T-cells (0.3–3 cells/well) were stimulated with irradiated allogenic PBMC (5 × 10^4/well) and phytohemagglutinin (1 µg/ml). Well growing cultures were subjected to a second round of expansion then tested for drug-specific T-cell proliferation. Proliferation was measured by the addition of ^3H-thymidine followed by scintillation counting. […] T-cell activation was determined using [^3H]-thymidine incorporation.

[1] = design: method as in FDA DILIrank datasets; conditions: ref FDA DILIrank datasets; cited from earlier work
PBMC = test: Inhibition of mitogen-induced (PHA-P) PBMC proliferation; format: cell-based, human; conditions: compound 48 h, then PHA-P 10 µg/ml 24 h, [3H]-thymidine
Experimental: Test compounds were provided by GSK to Liverpool as blinded dry powders with a given volume of dimethyl sulfoxide to prepare stock concentrations of 50 mM. Stock concentrations were aliquoted and stored at −80°C until required for experiments. A fresh aliquot was utilized for every experiment. PBMC from 3 healthy donors were used to determine the maximum tolerated concentration of each test compound. PBMC (0.15 × 10^6) were cultured with graded compound concentrations in U-bottomed 96-well plates for 48 h at 37°C, 5% CO2. Phytohemagglutinin (PHA-P; 10 µg/ml) was added to cells for a further 24 h followed by assessment of proliferation through the addition of [^3H]-thymidine (0.5 µCi/well) for the last 16 h. […] The IC50 value was then calculated using 4-parameter logistic curve-fitting model (GraphPad prism 7.0).
Figure 2. Toxicity profiles of training and test compounds. […] PHA-P (10 µg/ml) was added to cells for a further 24 h followed by assessment of proliferation through the addition of [^3H]-thymidine (0.5 µCi/well) for the last 16 h. […] 4-parameter logistic functions were fit to the data and IC50 values were then reported (GraphPad prism 7.0). […] LPB (Liverpool Pharmacology Biobank) represents the unique identifier for PBMC isolated from each consented healthy blood donor for drug safety research. Percentage proliferation for each compound concentration = Proliferation following drug exposure divided by proliferation after cell culture media exposure multiplied by 100.

[2] = design: method as in Sakatis et al., 2012; Schofield et al., 2021; conditions: Positive = above the threshold of concern; assays not listed negative; ref Sakatis et al., 2012; Schofield et al., 2021; cited from earlier work
[3] = design: method as in earlier work; conditions: ref National Institute of Diabetes and Digestive and Kidney Diseases (2012); cited from earlier work
naïve T-cells = test: Priming of naïve human T-cells (dendritic cell-T-cell coculture); format: cell-based; conditions: for Proliferation of primed T-cells, drug- vs medium-restimulated wells: 14 days priming, restimulation 48 h at single concentration, 48 wells, [3H]-thymidine; for Proliferation in medium restimulated wells after priming: primed 2 weeks, medium restimulation
Experimental: CD14+ monocytes were positively selected using CD14 antibody-conjugated microbeads. This was followed by the depletion of CD25+ cells from the CD14- population and the negative selection of CD45RA+ naïve T-cells. […] Dendritic cells were generated by culturing monocytes with a cocktail of GM-CSF (800 U/ml) and IL-4 (800 U/ml) in culture media for 6 days. Both cytokines were purchased from Peprotech (New Jersey). A maturation cocktail of TNF-α (25 ng/ml) and LPS (1 µg/ml) was added for 16 h before establishing the T-cell priming culture. Dendritic cells (8 × 10^3 per well) were cultured with naïve T-cells (1 × 10^5 per well) and the test compounds in a 96-well U-bottom tissue culture plate for 14 days at 37°C, 5% CO2. Cells were then washed extensively to remove unbound drug and cultures were restimulated with test compound or medium control (48 wells) for 48 h. Subsequent experiments were performed with training compounds to investigate the dose-dependent stimulation of naïve T-cells. In these experiments, T-cells were cultured with 3 concentrations of the test compound and medium (negative control) during the restimulation step. T-cell proliferative responses were determined by addition of [^3H]-thymidine (0.5 µCi/well) for the final 16 h of the culture period. Plates were harvested and counted as described above. […] Student’s t test was performed to determine statistical significance of T-cell proliferation when comparing medium- and drug-treated cultures (*p ≤ .05; **p ≤ .005; ***p < .001).
Figure 3. Naïve T-cell priming with training compounds. CD14+ monocytes were utilized to generate dendritic cells with a cocktail of GM-CSF (800 U/ml) and IL-4 (800 U/ml) in culture media for 6 days. […] A, Nitroso sulfamethoxazole. B, Vancomycin. C, Bandrowski’s base. D, Carbamazepine. E, Piperacillin. The degree of naïve T-cell priming was determined by comparing the counts per minutes (cpm) of drug and media-treated cultures using a beta counter. Student’s t test was performed to determine statistical significance (*p ≤ .05; **p ≤ .005; ***p < .001). Each data point represents T-cells proliferation in individual well of a 96 U-bottomed plate.
Figure 4. Dose-dependent stimulation of primed T-cells with training compound. […] Primed cells were washed extensively and then restimulated with 3 drug concentrations (low, medium, and high) for 48 h followed by determination of T-cell activation by [^3H]-thymidine incorporation. Each data point represents T-cells proliferation in individual well of a 96 U-bottomed plate.
Figure 5. Naïve T-cell priming with test compounds. […] B, Dacarbazine. […] F, Iproniazid. G, Mepivacaine. H, Nevirapine. […] J, Phenoxybenzamine. Primed cells were washed extensively and then restimulated medium or drug for 48 h followed by determination of T-cell activation by [^3H]-thymidine incorporation. Each data point represents T-cells proliferation in individual well of a 96 U-bottomed plate.

[4] = Homo sapiens, PBMC, PBMC from 3 healthy donors, read-out: IC50, inhibition of mitogen-driven PBMC proliferation
[5] = PBMC from 3 healthy donors, read-out: IC50, inhibition of mitogen-driven PBMC proliferation

SMILES | Overall immunogenicity call in T-cell assays (T-cell clones) | FDA Clinical Hepatotoxicity Concern [1] | IC50 (PBMC; Homo sapiens, PBMC, read-out: IC50, inhibition of mitogen-driven PBMC proliferation, PBMC from 3 healthy donors) | IC50 (PBMC; read-out: IC50, inhibition of mitogen-driven PBMC proliferation, PBMC from 3 healthy donors) | Routine Assays that are Positive (GSK) [2] | LiverTox annotation: likelihood as cause of clinically apparent liver injury [3] | IC50 (PBMC; [4]) | IC50 (PBMC; [5]) | Proliferation of primed T-cells, drug- vs medium-restimulated wells (naïve T-cells) | Proliferation in medium restimulated wells after priming (naïve T-cells) | IC50 (PBMC; PBMC from 3 healthy donors, listed as nevirapine, read-out: IC50, inhibition of mitogen-driven PBMC proliferation) | IC50 (PBMC; PBMC from 3 healthy donors, listed as iproniazid, read-out: IC50, inhibition of mitogen-driven PBMC proliferation) | IC50 (PBMC; PBMC from 3 healthy donors, listed as mepivacaine, read-out: IC50, inhibition of mitogen-driven PBMC proliferation)
CC(COc1ccccc1)N(CCCl)Cc1ccccc1 (centres unmarked) [Phenoxybenzamine] | no false positives | No | 15 µM | ≤ 20 µM | Reactive metabolite |  |  |  |  |  |  |  | 
COc1cc([C@@H]2c3cc4c(cc3[C@@H](O[C@@H]3O[C@@H]5CO[C@@H](C)O[C@H]5[C@H](O)[C@H]3O)[C@H]3COC(=O)[C@H]23)OCO4)cc(OC)c1O [Etoposide] | no false positives | Less |  |  |  | Probable cause of clinically apparent liver injury. Absence of immunoallergic features (rash, fever, eosinophilia) and of autoantibodies noted. Uncommon to have features of hypersensitivity | 20 µM | ≤ 20 µM |  |  |  |  | 
Cc1ccnc2c1NC(=O)c1cccnc1N2C1CC1 [Nevirapine] | did not flag these compounds as immunogenic | Most |  |  | None | Well-known cause of clinically apparent liver injury. Immunoallergic hepatitis associated with specific HLA types |  | 110 µM | increases in proliferation with drug restimulation was not observed | high level of proliferation | ≥ 50 µM |  | 
O=C1CN(/N=C/c2ccc([N+](=O)[O-])o2)C(=O)N1 [Nitrofurantoin] | did not flag these compounds as immunogenic | Most |  |  |  | Well-known cause of clinically apparent liver injury. Oxidative free radical formation. Some cases show autoimmune etiology with linkage to HLA-DR6 and DR2 | 15 µM | ≤ 20 µM |  |  |  |  | 
CC(C)NNC(=O)c1ccncc1 [Iproniazid] | did not flag these compounds as immunogenic | Most |  |  | None |  |  | 290 µM | increases in proliferation with drug restimulation was not observed | high level of proliferation |  | ≥ 50 µM | 
Cc1cccc(C)c1NC(=O)C1CCCCN1C (centres unmarked) [Mepivacaine] | no false positives | No |  |  | None | Unlikely to be a cause of clinically apparent liver injury |  | 210 µM | increases in proliferation with drug restimulation was not observed | high level of proliferation |  |  | ≥ 50 µM
CN(C)/N=N/c1[nH]cnc1C(N)=O [Dacarbazine] | did not flag these compounds as immunogenic | Most |  |  | Reactive metabolite; 3D hepatocyte spheroid | Highly likely cause of clinically apparent liver injury. May be immunologically mediated as usually occurs with second or third cycle and accompanied by eosinophilia | 15 µM | ≤ 20 µM |  |  |  |  | 

From paper PMC10734620, “A blinded in vitro analysis of the intrinsic immunogenicity of hepatotoxic drugs: implications for preclinical risk assessment” (Toxicological Sciences, 2023)
